Experiments:
Assay type in all cases: in vivo
[1] = system: CatG; assay: Bone marrow CatG activity after repeated dosing, C57BL/6 mice; conditions: for Reduction of CatG activity vs vehicle / Change From Vehicle Control (%) CatG: 7 days
Experimental: (§1) Briefly, animals were weighed and randomized into different treatment groups. In total, three different dosing levels of brensocatib were tested in each species and strain; each QD dosing level was equivalent to 1.5-times the matching daily BID dose. For BID dosing, the second daily dose was administered 8-h post the morning dose. C57BL/6 mice were dosed either BID or QD for 7 consecutive days at 0/0, 0.5/0.75, 2/3, and 20/30 mg/kg/day (BID/QD). BALB/c mice were dosed for 7 consecutive days at 0/0, 0.2/0.3, 2/3, and 20/30 mg/kg/day (BID/QD). SD rats were dosed for 9 consecutive days at 0/0, 0.2/0.3, 2/3, and 20/30 mg/kg/day (BID/QD). Wistar rats were dosed for 7 consecutive days at 0/0, 0.2/0.3, 2/3, and 20/30 mg/kg/day (BID/QD).
(§2) At the completion of the study, animals were sacrificed 16–24 h post their final dose. The hind limb bones (femurs and tibias) were collected at necropsy for bone marrow analysis of NSP activities by kinetic enzymatic assays ([Basso et al., 2022]). See section Quantification of Bone Marrow NSP Activities for details.
(§3) For the mice, each animal had the femurs and tibias of both hind limbs harvested. For the rat, the femur and tibia from a single hind limb per animal was harvested. Bones were kept on wet ice until processing for bone marrow collection. In brief, bone cutters were used to cut the epiphysis (knobby ends) off the long bones to expose the bone marrow filled cavity. Each bone cavity was then flushed with 5 mL/bone (mouse) or 10 mL/bone (rat) of ice-cold RPMI media through a […] and collected in a 50-mL conical tube. Cells were spun down at 2,500 × g at 4°C for 5 min and the supernatant was aspirated. After which, bone marrow cells were lysed with 1X red blood cell (RBC) lysis buffer (Abcam, ab204733) to eliminate contaminating RBCs and washed with PBS to remove any residual RBC lysis buffer. The resulting white blood cells (WBC) were subsequently lysed with 1% (v/v) Triton X-100 in PBS. Lysates were added to 96-well plates and stored at −80°C until NSP analyses.
(§4) Bone marrow lysates prepared as described above were diluted and plated onto 96-well assay plates to quantify NSP activities as described previously ([Basso et al., 2022]). Briefly, peptide substrates for NE (N-Methoxysuccinyl-Ala-Ala-Pro-Val-7-amido-4-methylcoumarin; Sigma; St. Louis, MO; Excitation/Emission at 350/450 nm), PR3 ((7-Methoxycoumarin-4-yl)acetyl-lysyl-(picolinoyl)-Tyr-Asp-Ala-Lys-Gly-Asp-N-3-(2-4-dinitrophenyl)-2-3-diaminopropyonyl-NH2); GenScript; Piscataway, NJ; Excitation/Emission at 340/430 nm), and CatG (N-Succinyl-Ala-Ala-Pro-Phe p nitroanilide; Sigma; Absorbance at 405 nm) were added at a final assay concentration of 100 μM, 40 μM, and 200 μM, respectively, and either fluorescence or absorbance was quantified using a Synergy microplate reader (BioTek; Winooski, VT). The specific NSP activity in each sample was calculated as the total activity minus the activity in the presence of a specific NSP inhibitor (if used), including elastase inhibitor (Abcam) for NE, sivelestat (Abcam) for PR3, and cathepsin G inhibitor I (Cayman Chemical; Ann Arbor, MI) for CatG. NSP concentrations were interpolated based on their activities relative to the standard curves created using active human NE protein (Sigma), active human PR3 protein (Sigma), and active human CatG protein (Sigma), respectively. Due to unavailability of commercial mouse and/or rat NE, PR3, and CatG proteins, the corresponding human proteins were used instead since their catalytic ability is considered to be conserved across species. A portion of each cell lysate sample was retained for protein quantification using a Pierce™ BCA Protein Assay Kit (Thermo Fisher). The NSP activities were normalized for the cell lysate protein concentrations.
(§5) The Pierce™ BCA Protein Assay Kit was used to measure the total protein of the samples after lysis to allow for subsequent normalization. […]

[2] = system: CatG; assay: Bone marrow CatG activity after repeated dosing, Sprague Dawley rats; conditions: for Reduction of CatG activity vs vehicle / Change From Vehicle Control (%) CatG: 9 days
Experimental: as §1, §2, §3, §4, §5

[3] = system: PR3; assay: Bone marrow PR3 activity after repeated dosing, Wistar rats; conditions: for Reduction of PR3 activity vs vehicle / Change From Vehicle Control (%) PR3: 7 days
Experimental: as §1, §2, §3, §4, §5

[4] = system: NE; assay: Bone marrow NE activity after repeated dosing, Wistar rats; conditions: for Reduction of NE activity vs vehicle / Change From Vehicle Control (%) NE: 7 days
Experimental: as §1, §2, §3, §4, §5

[5] = BID highest dose (20 mg/kg/day)
[6] = highest dose level 20/30 (BID/QD) mg/kg/day

Compound: Cn1c(=O)oc2ccc(-c3ccc(C[C@@H](C#N)NC(=O)[C@@H]4CNCCCO4)cc3)cc21 [brensocatib]
- Reduction of CatG activity vs vehicle [1, 5]: 94%
- Reduction of CatG activity vs vehicle ([1]; QD highest dose (30 mg/kg/day)): 87%
- Combined BID and QD percent reduction, CatG [1, 6]: 90%
- Change From Vehicle Control (%) CatG ([1]; oral BID 0.5 mg/kg/day, 16 h post final dose): −16% (p = 0.1964)
- Change From Vehicle Control (%) CatG ([1]; oral BID 2 mg/kg/day, 16 h post final dose): −71% (p < 0.0001)
- Change From Vehicle Control (%) CatG ([1]; oral BID 20 mg/kg/day, 16 h post final dose): −94% (p < 0.0001)
- Change From Vehicle Control (%) CatG ([1]; oral QD 0.75 mg/kg/day, 24 h post final dose): −1% (p = 0.9999)
- Change From Vehicle Control (%) CatG ([1]; oral QD 3 mg/kg/day, 24 h post final dose): −64% (p < 0.0001)
- Change From Vehicle Control (%) CatG ([1]; oral QD 30 mg/kg/day, 24 h post final dose): −87% (p < 0.0001)
- Reduction of CatG activity vs vehicle [2, 5]: 37%
- Reduction of CatG activity vs vehicle ([2]; QD highest dose (30 mg/kg/day)): 43%
- Combined BID and QD percent reduction, CatG [2, 6]: 40%
- Change From Vehicle Control (%) CatG ([2]; oral BID 0.2 mg/kg/day): +4% (p = 0.9857)
- Change From Vehicle Control (%) CatG ([2]; oral BID 2 mg/kg/day): +2% (p = 0.9972)
- Change From Vehicle Control (%) CatG ([2]; oral BID 20 mg/kg/day): −37% (p = 0.0420)
- Change From Vehicle Control (%) CatG ([2]; oral QD 0.3 mg/kg/day): −9% (p = 0.9235)
- Change From Vehicle Control (%) CatG ([2]; oral QD 3 mg/kg/day): −13% (p = 0.8203)
- Change From Vehicle Control (%) CatG ([2]; oral QD 30 mg/kg/day): −43% (p = 0.0348)
- Reduction of PR3 activity vs vehicle [3, 5]: 46%
- Reduction of PR3 activity vs vehicle ([3]; QD highest dose (30 mg/kg/day)): 59%
- Combined BID and QD percent reduction, PR3 [3, 6]: 53%
- Change From Vehicle Control (%) PR3 ([3]; oral BID 0.2 mg/kg/day): +10% (p = 0.9848)
- Change From Vehicle Control (%) PR3 ([3]; oral BID 2 mg/kg/day): +22% (p = 0.8768)
- Change From Vehicle Control (%) PR3 ([3]; oral BID 20 mg/kg/day): −46% (p = 0.4135)
- Change From Vehicle Control (%) PR3 ([3]; oral QD 0.3 mg/kg/day): +6% (p = 0.9963)
- Change From Vehicle Control (%) PR3 ([3]; oral QD 3 mg/kg/day): −35% (p = 0.5635)
- Change From Vehicle Control (%) PR3 ([3]; oral QD 30 mg/kg/day): −59% (p = 0.1437)
- Reduction of NE activity vs vehicle [4, 5]: 19%
- Reduction of NE activity vs vehicle ([4]; QD highest dose (30 mg/kg/day)): 19%
- Combined BID and QD percent reduction, NE [4, 6]: 19%
- Change From Vehicle Control (%) NE ([4]; oral BID 0.2 mg/kg/day): −6% (p = 0.9661)
- Change From Vehicle Control (%) NE ([4]; oral BID 2 mg/kg/day): −6% (p = 0.9676)
- Change From Vehicle Control (%) NE ([4]; oral BID 20 mg/kg/day): −19% (p = 0.4767)
- Change From Vehicle Control (%) NE ([4]; oral QD 0.3 mg/kg/day): +8% (p = 0.9636)
- Change From Vehicle Control (%) NE ([4]; oral QD 3 mg/kg/day): +17% (p = 0.7823)
- Change From Vehicle Control (%) NE ([4]; oral QD 30 mg/kg/day): −19% (p = 0.7283)
